From paper PMC5077133, “Towards Development of Small Molecule Lipid II Inhibitors as Novel Antibiotics” (PLoS ONE, 2016) come the findings set out here.

Data set [1] can be described thus: Liver microsome stability. Type of data set: in vitro ADME. The conditions noted are these: human, human liver microsomes, pH 7.4. As to the method: The in vitro microsome stability assay was performed using human liver microsomes and a Biomek FXP liquid handling workstation to deliver reagents to a 96 deep well plate on a shaking peltier with temperature controls. Human liver microsomes were purchased from Corning®. The test compound was incubated in an aqueous reaction mixture (200 ul total volume) consisting of human liver microsomes (150 mixed donor pool) and NADPH Regenerating System Solutions A and B (Corning®) in the presence of 100 mM potassium phosphate buffer (pH 7.4). The NADPH solution A comprises nicotinamide adenine dinucleotide phosphate (NADP+) and glucose 6-phosphate and solution B contains glucose-6-phosphate dehydrogenase. Solutions A and B were combined prior to adding to the reaction plate to generate a supply of NADPH. The NADPH was added last to simultaneously initiate the reactions. The final concentration of the test compound was 10 uM and the microsomal protein concentration was 0.5 mg/ml. After incubation at 37°C, the reaction was terminated at 0, 5, 10, 20, 30, 40, 50 and 60 minutes, respectively, by the addition of 600 uL of acetonitrile. Three replicates were run for each time point. The quenched reaction plate was centrifuged at 4500 rpm for 10 minutes. The supernatant was diluted 1:2 in 30% Methanol in water for LC/MS/MS analyses to monitor substrate depletion. Water was substituted for NADPH for the zero time-point samples. A control plate, without NADPH cofactor, was completed on the same day, using the same conditions.
The half-life (t1/2) was obtained using the equation below: t1/2=−0.693/slope
Where slope is the slope of the line formed by ln(% remaining test compound) vs. time. The in vitro intrinsic clearance (CLint) value was calculated using equation: CLint=(0.693/t1/2)(incubation volume(ul)/total microsomal protein(mg))
(In general: Microsomes from liver hold many membrane-bound enzymes, among them those of drug oxidation.)

In data set [2] the test system is Enterococcus faecalis EF1509. Description: Murine peritoneal sepsis model. It is filed as in vivo, C57BL/6J mice. The conditions noted are these: 6jc48-1 100 mg/kg, ampicillin 300 mg/kg. The source says:
Care of the mice met or exceeded the standards set forth by the National Institute of Health Guide for the care and use of laboratory animals and the AVMA panel on Euthanasia. All procedures in this study have been approved by the Institutional Animal Care and Use Committee (IACUC) at the University of Maryland Baltimore School of Medicine (Protocol number 02122005). Adult C57BL/6J mice (~18 grams, 8–10 weeks old) were used for all experiments. Mice were obtained from the Jackson Laboratory (Bar Harbor, Maine, USA) and housed in the IHV SPC animal core facility. Mice were fed standard chow (Harlan Laboratories) and water ad libitum. […] Infected animals (n = 5) were subsequently treated by intraperitoneal injection 30 min post-infection with 100 mg/kg of compound in 300 μL sterile saline solution, 5% Tween 80, 10% DMSO (V/V), ampicillin (300mg/kg), or vehicle (sterile saline solution, 5% Tween 80, 10% DMSO (V/V)) as positive and negative controls, respectively. Animals were closely observed during a period of 24 h and mice that show signs of severe sepsis were humanely euthanized. Mice were anesthetized by intraperitoneal injection of ketamine (80-100mg/kg) and xylazine (10–15 mg/kg). Once sedated, blood was collected by cardiac puncture. Immediately after blood collection the mice were euthanized by cervical dislocation. Spleens were harvested aseptically, weighed and homogenized in 500 μl of sterile saline solution using an IKA T10 basic disperser (IKA, Wilmington NC). Spleen homogenates were serially diluted and plated onto BHI agar plates. Bacterial counts were determined following 24 h incubation at 37°C and expressed as CFU per gram for spleen.
We established a murine model for sepsis to evaluate the efficacy of 6jc48-1 as an antibiotic agent in vivo. […] Based on the data obtained in the pharmacokinetic analysis, mice (n = 5) were inoculated intraperitoneally with E. faecalis EF1509 (~5 x 10^8 CFU/ animal) and treated after 30 min with compound 6jc48-1 (100 mg/kg IP), ampicillin (300 mg/kg IP) or vehicle. Animals were monitored for survival and after 24 h spleen samples were collected and analyzed for the presence of bacteria. Bacterial counts were determined by plating serial dilutions on BHI agar plates and compared to control treatment with ampicillin as measures of efficacy (Fig 5).

A further data set concerns E. aerogenes ATCC 13048. Description: Antibacterial activity (MIC, broth dilution). The conditions noted are these: CLSI. It is filed as cell-based. As to the method: (§1) Determination of the Minimal Inhibitory Concentrations (MIC) by dilution was carried out by broth dilution according to CLSI standards.
(Broth dilution looks for growth in wells or tubes with falling amounts of substance.)

In data set [3] the test system is S. aureus HFH-30123 (MRSA). Description: Antibacterial activity (MIC, broth dilution). It is filed as cell-based. As to conditions: CLSI. As to the method: as §1
The next data set deals with E. cloacae ATCC 13047. Nature of the data set: Antibacterial activity (MIC, broth dilution). Type of data set: cell-based. The conditions noted are these: CLSI. As to the method:
as §1

The test system of another data set is E. faecium EF1509 (VRE). Description: Antibacterial activity (MIC, broth dilution). It is filed as cell-based. The conditions noted are these: CLSI, in µg/mL. On the procedure:
as §1

Another data set relates to P. aeruginosa X13273. Nature of the data set: Antibacterial activity (MIC, broth dilution). It is filed as cell-based. As to conditions: CLSI, in µg/mL. As to the method:
as §1

The test system of a further data set is E. faecium F118 (VRE). Nature of the data set: Antibacterial activity (MIC, broth dilution). Type of data set: cell-based. The conditions noted are these: CLSI, in µg/mL. As to the method: as §1
A further data set relates to S. aureus MRSA 1094. Description: Antibacterial activity (MIC, broth dilution). Type of data set: cell-based. The conditions noted are these: CLSI. On the procedure: as §1
The subject of another data set is P. aeruginosa ATCC 27853. Nature of the data set: Antibacterial activity (MIC, broth dilution). Type of data set: cell-based. The conditions noted are these: CLSI. As to the method:
as §1

Data set [4] deals with K. pneumoniae NR-15410 (KPC). Description: Antibacterial activity (MIC, broth dilution). It is filed as cell-based. The conditions noted are these: CLSI. As to the method: as §1
For another data set, the system named is P. aeruginosa PA01. Nature of the data set: Antibacterial activity (MIC, broth dilution). Type of data set: cell-based. As to conditions: CLSI. On the procedure:
as §1

Data set [5] has as its system K. pneumoniae NR-15411 (KPC). Description: Antibacterial activity (MIC, broth dilution). Type of data set: cell-based. As to conditions: CLSI. As to the method:
as §1

The test system of a further data set is HeLa cells. Nature of the data set: Cytotoxicity against mammalian cells (MTS assay). It is filed as cell-based. In a few lines:
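HeLa cells exposed 72 h in RPMI1640 to compounds at 64 to 0.125 μg/ml, in triplicate. Viability measured as mitochondrial activity by MTS, and CC50 taken against a standard curve of serially diluted untreated cells.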
(In general: Tetrazolium assays rely on reduction of a dye to a coloured formazan, in cell work by metabolically active cells.)

The subject of another data set is A. baumanii ATCC 19606. Description: Antibacterial activity (MIC, broth dilution). It is filed as cell-based, Acinetobacter baumanii. The conditions noted are these: CLSI, in µg/mL. The procedure, abridged:
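MIC determined by broth dilution following CLSI standards, using A. baumanii ATCC 19606.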

Data set [6] is described as follows: Lipid II binding by Surface Plasmon Resonance. As to conditions: SPR, immobilized 3-Lipid II, 25°C. The procedure, abridged:
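Farnesyl (3-isoprene) Lipid II amine-coupled (50 RUs) on CM5 chips. Compounds injected at 10 μM, 30 μl/min, 25°C, in 10 mM HEPES, 150 mM NaCl, 0.05% P20, pH 7.4 (± 3 mM EDTA), 10% DMSO. Signals corrected against control flow-cell; kinetics fitted from binding isotherms.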

In data set [7] the test system is E. faecalis (n=5) clinical isolates. Nature of the data set: Activity against Enterococcus spp. (MIC). It is filed as cell-based. As to conditions: clinical isolates sensitive to linezolid and daptomycin. On the procedure: as §1

As for `COc1ccc2c(c1)[C@]13CCCC[C@@H]1[C@H](C2)N(C)CC3` [dextromethorphan, reference compound], the microsomal CLint at 10 uM in data set [1] (read-out: Liver microsome intrinsic clearance (positive control)) is 31 µL/min/mg. In addition, the half-life at 10 uM in data set [1] (read-out: Liver microsome t1/2 (positive control)) came to 40 min.

Take `CC1(C)S[C@@H]2[C@H](NC(=O)[C@H](N)c3ccccc3)C(=O)N2[C@H]1C(=O)O` [ampicillin, reference compound]: the “Bacterial counts in spleen” value in [2] (IP treatment 30 min post-infection, spleen collected after 24 h) is listed as “significant bacterial clearance”. Also, the “Survival of infected animals” value in data set [2] (n = 5, IP treatment 30 min post-infection, length of the experiment (24 h)) is given as “all animals”.

Consider `Cn1cc(/C=C/c2cc(-c3ccc(C(C)(C)C)cc3)cc(-c3ccc(C(C)(C)C)cc3)[o+]2)c2ccccc21.F[B-](F)(F)F` [6jc66-3], for which the Antibacterial activity (MIC) E. aerogenes ATCC 13048 in the data set on E. aerogenes ATCC 13048 is not below 64 µg/mL. In data set [3], this molecule registered an Antibacterial activity (MIC) S. aureus HFH-30123 (MRSA) of 8 µg/mL. The same molecule returned an Antibacterial activity (MIC) E. cloacae ATCC 13047 in the data set on E. cloacae ATCC 13047 not below 64 µg/mL. Also, the “Antibacterial activity (MIC) E. faecium EF1509 (VRE)” value with E. faecium EF1509 (VRE) is on record as 4. In the data set on P. aeruginosa X13273, the “Antibacterial activity (MIC) P. aeruginosa X13273” value is “>=64”. In the data set with E. faecium F118 (VRE), the “Antibacterial activity (MIC) E. faecium F118 (VRE)” value was determined as 11.31. In the data set with S. aureus MRSA 1094, this molecule came in with an Antibacterial activity (MIC) S. aureus MRSA 1094 of 8 µg/mL. In the data set with P. aeruginosa ATCC 27853, this molecule came in with an Antibacterial activity (MIC) P. aeruginosa ATCC 27853 not below 64 µg/mL. This molecule displayed an Antibacterial activity (MIC) K. pneumoniae NR-15410 (KPC) in [4] not below 64 µg/mL. In the data set with P. aeruginosa PA01, this molecule came in with an Antibacterial activity (MIC) P. aeruginosa PA01 not below 64 µg/mL. In data set [5], this molecule gave an Antibacterial activity (MIC) K. pneumoniae NR-15411 (KPC) not below 64 µg/mL. In the data set with HeLa cells, the “CC50% (72 h HeLa cells)” value turned out to be 5.68. Further, the “Antibacterial activity (MIC) A. baumanii ATCC 19606” value with A. baumanii ATCC 19606 was “>=64”. Further, binding in [6] was characterised by a dissociation constant (Kd) of 60 ± 11 µM.

In the case of `CN[C@H](CC(C)C)C(=O)N[C@H]1C(=O)N[C@@H](CC(N)=O)C(=O)N[C@H]2C(=O)N[C@H]3C(=O)N[C@H](C(=O)N[C@H](C(=O)O)c4cc(O)cc(O)c4-c4cc3ccc4O)[C@H](O)c3ccc(c(Cl)c3)Oc3cc2cc(c3O[C@@H]2O[C@H](CO)[C@@H](O)[C@H](O)[C@H]2O[C@H]2C[C@](C)(N)[C@H](O)[C@H](C)O2)Oc2ccc(cc2Cl)[C@H]1O` [Vancomycin], the “Activity (MIC) E. faecalis (n=5) clinical isolates” value in [7] is listed as more than 32.
